Results taken from ChEMBL document CHEMBL1201862, “PubChem BioAssay data set” (2004).
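Interpolation was linear, between the two tested concentrations surrounding the appropriate level; five concentrations were tested over 48 hours in 96-well plates. GI50 marks 50% less growth.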 Active and inactive are the calls of the source. No stated cut-off is given here; in the data, active = GI50 up to about 1.1 µM and inactive = higher.

Legend:
Test in all cases: NCI tumour cell line growth inhibition, 48 h
786-0 = test system: 786-0
A498 = test system: A498
ACHN = test system: ACHN
CAKI-1 = test system: CAKI-1
CCRF-CEM = test system: CCRF-CEM
HCC 2998 = test system: HCC 2998
KM12 = test system: KM12
NCI-H23 = test system: NCI-H23
OVCAR-8 = test system: OVCAR-8
SF-539 = test system: SF-539
SN12C = test system: SN12C
SNB-19 = test system: SNB-19
SR = test system: SR
UACC-62 = test system: UACC-62
RXF 393 = test system: RXF 393
IGROV-1 = test system: IGROV-1

Measured: GI50

N=C(N)Nc1nc2cc(N)ccc2o1
inactive: 786-0 > 100 µM | A498 > 100 µM | ACHN > 100 µM | CAKI-1 > 100 µM | CCRF-CEM > 100 µM | HCC 2998 > 100 µM | KM12 > 100 µM | NCI-H23 > 100 µM | OVCAR-8 > 100 µM | SF-539 > 100 µM | SN12C > 100 µM | SNB-19 > 100 µM | SR > 100 µM | UACC-62 > 100 µM

C#CC1(O)CCC2[C@@H]3CCc4cc(Oc5nc(F)nc(-c6c7ccccc7cn6C)n5)ccc4C3CC[C@@]21C (some centres undefined)
inactive: 786-0 > 100 µM | A498 > 100 µM | ACHN > 100 µM | CAKI-1 > 100 µM | CCRF-CEM 30.7 µM | HCC 2998 > 100 µM | KM12 > 100 µM | NCI-H23 > 100 µM | OVCAR-8 > 100 µM | RXF 393 > 93.1 µM | SF-539 > 100 µM | SN12C > 100 µM | SNB-19 > 100 µM | SR > 46.3 µM | UACC-62 > 100 µM

O=S1(=O)OCCOS(=O)(=O)C1(I)I
inactive: 786-0 20.1 µM | A498 16.7 µM | CAKI-1 17.3 µM | CCRF-CEM 10.9 µM | HCC 2998 20.8 µM | IGROV-1 25.3 µM | KM12 18.9 µM | NCI-H23 11.1 µM | OVCAR-8 20.7 µM | SF-539 21.7 µM | SN12C 17.5 µM | SNB-19 26.5 µM | SR 12.3 µM | UACC-62 14.7 µM

CS(=O)(=O)OCCN(CCOS(C)(=O)=O)c1ccc(/C=N/N=c2/nc[nH]c3nc[nH]c23)cc1
inactive: 786-0 16.3 µM | A498 25.7 µM | ACHN 17.4 µM | CAKI-1 14.2 µM | CCRF-CEM 8.09 µM | HCC 2998 19.4 µM | IGROV-1 19.1 µM | KM12 15.6 µM | NCI-H23 14.8 µM | OVCAR-8 20.7 µM | RXF 393 15.7 µM | SF-539 18.3 µM | SN12C 35.2 µM | SNB-19 27.6 µM | SR 4.57 µM | UACC-62 12.9 µM

CNC(=O)NCCCCC(NC(=O)OCc1ccccc1)C(=O)OCc1ccccc1 (centres undefined)
inactive: 786-0 17.5 µM | A498 > 100 µM | ACHN 19.1 µM | CAKI-1 23.7 µM | CCRF-CEM 17.9 µM | HCC 2998 20.3 µM | IGROV-1 28.1 µM | KM12 29.9 µM | NCI-H23 29.3 µM | OVCAR-8 29.4 µM | RXF 393 16.4 µM | SF-539 19 µM | SN12C 24.2 µM | SNB-19 > 100 µM | SR 27.4 µM | UACC-62 21.5 µM

NC1=Nc2ccccc2Sc2ccccc21
inactive: 786-0 > 100 µM | A498 84.9 µM | ACHN > 100 µM | CAKI-1 > 100 µM | CCRF-CEM > 100 µM | HCC 2998 > 100 µM | IGROV-1 > 100 µM | KM12 > 100 µM | NCI-H23 > 100 µM | OVCAR-8 > 100 µM | RXF 393 95.7 µM | SF-539 58.5 µM | SN12C > 100 µM | SNB-19 87.3 µM | SR > 100 µM | UACC-62 > 100 µM

S=C1NC(c2ccccc2)=NC(Cc2ccccc2)(c2ccccc2)N1c1ccccc1 (centres undefined)
inactive: 786-0 > 100 µM | A498 > 100 µM | ACHN 97.1 µM | CAKI-1 > 100 µM | CCRF-CEM > 100 µM | HCC 2998 > 100 µM | IGROV-1 > 100 µM | KM12 > 100 µM | NCI-H23 > 100 µM | OVCAR-8 41.4 µM | RXF 393 68.2 µM | SF-539 > 100 µM | SN12C > 100 µM | SNB-19 45.4 µM | SR > 100 µM | UACC-62 > 100 µM

O=C(C#Cc1ccccc1)NC/C=C/c1ccccc1
inactive: 786-0 24.2 µM | A498 52 µM | ACHN 42.6 µM | CAKI-1 37.2 µM | CCRF-CEM 36.8 µM | HCC 2998 35.2 µM | IGROV-1 55.8 µM | KM12 46.7 µM | NCI-H23 44.4 µM | OVCAR-8 35.2 µM | RXF 393 14.8 µM | SF-539 33.3 µM | SN12C 49.9 µM | SNB-19 26.7 µM | SR 35.6 µM | UACC-62 33.6 µM

COc1c(CC(=O)c2ccccc2)c2ccccc2n1C(C)=O
inactive: 786-0 29.9 µM | A498 > 100 µM | ACHN > 100 µM | CAKI-1 > 100 µM | CCRF-CEM > 100 µM | HCC 2998 > 100 µM | IGROV-1 > 100 µM | KM12 > 100 µM | NCI-H23 58.7 µM | OVCAR-8 91 µM | RXF 393 34.5 µM | SF-539 > 100 µM | SN12C > 100 µM | SNB-19 > 100 µM | SR > 100 µM | UACC-62 > 100 µM

O=C(CCc1nnc2s/c(=C\c3ccc4c(c3)OCO4)c(=O)n12)Nc1cc(Cl)ccc1Cl
inactive: 786-0 > 100 µM | A498 > 100 µM | ACHN > 100 µM | CAKI-1 > 100 µM | CCRF-CEM > 100 µM | HCC 2998 > 100 µM | IGROV-1 > 100 µM | KM12 > 100 µM | NCI-H23 > 100 µM | OVCAR-8 > 100 µM | RXF 393 > 100 µM | SF-539 > 100 µM | SN12C > 100 µM | SNB-19 > 100 µM | SR > 100 µM | UACC-62 > 100 µM

CN(C)c1ccc(/C=C(\NC(=O)c2ccccc2)c2nc3cncnc3[nH]2)cc1
inactive: 786-0 > 100 µM | ACHN > 100 µM | CAKI-1 > 100 µM | CCRF-CEM > 100 µM | HCC 2998 > 100 µM | IGROV-1 > 100 µM | KM12 > 100 µM | NCI-H23 > 100 µM | OVCAR-8 > 100 µM | RXF 393 > 100 µM | SF-539 > 100 µM | SN12C > 100 µM | SNB-19 > 100 µM | SR > 100 µM | UACC-62 > 100 µM

CC(C)(C)c1cc(C(O)(C(F)(F)F)C(F)(F)F)c2c(c1)C(C(F)(F)F)(C(F)(F)F)OC(c1ccccc1)(C(C)(C)C)N2 (centres undefined)
inactive: 786-0 > 100 µM | ACHN 3.7 µM | CAKI-1 4.02 µM | HCC 2998 8.07 µM | IGROV-1 4.33 µM | KM12 4.5 µM | NCI-H23 1.99 µM | OVCAR-8 6.05 µM | RXF 393 3.37 µM | SF-539 > 100 µM | SN12C 4.85 µM | SNB-19 4.65 µM | SR 2.58 µM | UACC-62 3.66 µM

O=C1N(Cl)C(=O)C(c2ccc(Cl)cc2)(c2ccc(Cl)cc2)N1Cl
inactive: 786-0 48.3 µM | A498 > 100 µM | ACHN 55.8 µM | CAKI-1 > 100 µM | CCRF-CEM 22.6 µM | HCC 2998 > 100 µM | IGROV-1 > 100 µM | KM12 48.8 µM | NCI-H23 > 100 µM | OVCAR-8 71.4 µM | RXF 393 22.6 µM | SF-539 > 100 µM | SN12C 96.8 µM | SNB-19 > 100 µM | SR 39.4 µM
